From patent US12685735B2 (Foghorn Therapeutics Inc., priority 2020, dated 2026)
Like-named read-outs stand apart in the source and are kept apart here.

Key:
BRG-1 = BRG-1 (Homo sapiens, UniProt P51532); assay: ATPase catalytic activity assay of BRG-1 (ADP-Glo); type: biochemical; conditions: ATPase catalytic activity, ADP-Glo; for IC50: read-out: BRG1 IC50 (μM)*; for Emax: read-out: BRG1 Max % Inhibition
In short: (§1)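 In vitro biochemical ATPase assay; product ADP detected after removing leftover ATP and reconverting ADP to ATP for a luciferase signal.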

BRM = BRM (Homo sapiens, UniProt P51531); assay: ATPase catalytic activity assay of BRM (ADP-Glo); type: biochemical; conditions: for IC50: read-out: BRM IC50 (μM)*
Sequence of BRM (P51531 whole entry): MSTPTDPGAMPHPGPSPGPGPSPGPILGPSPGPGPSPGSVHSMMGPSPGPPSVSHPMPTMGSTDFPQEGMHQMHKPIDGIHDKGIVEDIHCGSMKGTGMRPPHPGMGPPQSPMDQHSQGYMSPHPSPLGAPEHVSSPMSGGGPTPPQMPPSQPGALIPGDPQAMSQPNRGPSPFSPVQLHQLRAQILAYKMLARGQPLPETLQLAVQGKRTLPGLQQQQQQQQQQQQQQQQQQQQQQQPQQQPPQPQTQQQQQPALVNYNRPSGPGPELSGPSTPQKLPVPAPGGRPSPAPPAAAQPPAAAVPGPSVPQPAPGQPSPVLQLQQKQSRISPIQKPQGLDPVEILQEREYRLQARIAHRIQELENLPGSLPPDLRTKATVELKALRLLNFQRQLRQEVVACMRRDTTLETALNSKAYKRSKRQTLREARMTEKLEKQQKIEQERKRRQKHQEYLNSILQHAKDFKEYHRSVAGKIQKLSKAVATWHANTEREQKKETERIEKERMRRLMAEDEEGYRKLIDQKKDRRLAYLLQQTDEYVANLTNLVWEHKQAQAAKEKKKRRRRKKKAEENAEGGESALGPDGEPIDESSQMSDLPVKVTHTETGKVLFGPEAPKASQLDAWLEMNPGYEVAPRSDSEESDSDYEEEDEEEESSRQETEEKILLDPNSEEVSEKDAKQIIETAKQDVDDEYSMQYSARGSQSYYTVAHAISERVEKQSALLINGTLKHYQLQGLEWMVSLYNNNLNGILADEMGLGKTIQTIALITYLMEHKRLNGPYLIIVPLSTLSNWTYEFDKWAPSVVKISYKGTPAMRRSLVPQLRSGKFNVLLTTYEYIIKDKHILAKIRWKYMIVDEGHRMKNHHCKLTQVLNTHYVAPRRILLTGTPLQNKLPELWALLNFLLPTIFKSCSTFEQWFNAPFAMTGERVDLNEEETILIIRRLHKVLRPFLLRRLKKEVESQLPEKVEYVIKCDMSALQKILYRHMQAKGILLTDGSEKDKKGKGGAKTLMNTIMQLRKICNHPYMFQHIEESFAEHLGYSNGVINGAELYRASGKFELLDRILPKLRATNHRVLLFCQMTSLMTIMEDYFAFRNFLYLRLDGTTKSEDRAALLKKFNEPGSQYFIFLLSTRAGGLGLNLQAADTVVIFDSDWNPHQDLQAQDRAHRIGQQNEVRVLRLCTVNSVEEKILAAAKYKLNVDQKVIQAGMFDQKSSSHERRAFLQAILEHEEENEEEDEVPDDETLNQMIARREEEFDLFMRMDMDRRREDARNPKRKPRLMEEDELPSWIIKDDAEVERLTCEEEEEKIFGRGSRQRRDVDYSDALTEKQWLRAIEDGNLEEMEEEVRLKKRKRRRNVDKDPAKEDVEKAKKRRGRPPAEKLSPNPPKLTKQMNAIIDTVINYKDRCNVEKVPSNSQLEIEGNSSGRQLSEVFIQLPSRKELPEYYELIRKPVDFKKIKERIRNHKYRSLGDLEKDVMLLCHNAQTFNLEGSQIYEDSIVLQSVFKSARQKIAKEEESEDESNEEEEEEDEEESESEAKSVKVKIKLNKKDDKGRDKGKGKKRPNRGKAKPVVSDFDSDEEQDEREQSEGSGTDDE
In short: as §1

Sequence of BRG-1 (P51532 whole entry): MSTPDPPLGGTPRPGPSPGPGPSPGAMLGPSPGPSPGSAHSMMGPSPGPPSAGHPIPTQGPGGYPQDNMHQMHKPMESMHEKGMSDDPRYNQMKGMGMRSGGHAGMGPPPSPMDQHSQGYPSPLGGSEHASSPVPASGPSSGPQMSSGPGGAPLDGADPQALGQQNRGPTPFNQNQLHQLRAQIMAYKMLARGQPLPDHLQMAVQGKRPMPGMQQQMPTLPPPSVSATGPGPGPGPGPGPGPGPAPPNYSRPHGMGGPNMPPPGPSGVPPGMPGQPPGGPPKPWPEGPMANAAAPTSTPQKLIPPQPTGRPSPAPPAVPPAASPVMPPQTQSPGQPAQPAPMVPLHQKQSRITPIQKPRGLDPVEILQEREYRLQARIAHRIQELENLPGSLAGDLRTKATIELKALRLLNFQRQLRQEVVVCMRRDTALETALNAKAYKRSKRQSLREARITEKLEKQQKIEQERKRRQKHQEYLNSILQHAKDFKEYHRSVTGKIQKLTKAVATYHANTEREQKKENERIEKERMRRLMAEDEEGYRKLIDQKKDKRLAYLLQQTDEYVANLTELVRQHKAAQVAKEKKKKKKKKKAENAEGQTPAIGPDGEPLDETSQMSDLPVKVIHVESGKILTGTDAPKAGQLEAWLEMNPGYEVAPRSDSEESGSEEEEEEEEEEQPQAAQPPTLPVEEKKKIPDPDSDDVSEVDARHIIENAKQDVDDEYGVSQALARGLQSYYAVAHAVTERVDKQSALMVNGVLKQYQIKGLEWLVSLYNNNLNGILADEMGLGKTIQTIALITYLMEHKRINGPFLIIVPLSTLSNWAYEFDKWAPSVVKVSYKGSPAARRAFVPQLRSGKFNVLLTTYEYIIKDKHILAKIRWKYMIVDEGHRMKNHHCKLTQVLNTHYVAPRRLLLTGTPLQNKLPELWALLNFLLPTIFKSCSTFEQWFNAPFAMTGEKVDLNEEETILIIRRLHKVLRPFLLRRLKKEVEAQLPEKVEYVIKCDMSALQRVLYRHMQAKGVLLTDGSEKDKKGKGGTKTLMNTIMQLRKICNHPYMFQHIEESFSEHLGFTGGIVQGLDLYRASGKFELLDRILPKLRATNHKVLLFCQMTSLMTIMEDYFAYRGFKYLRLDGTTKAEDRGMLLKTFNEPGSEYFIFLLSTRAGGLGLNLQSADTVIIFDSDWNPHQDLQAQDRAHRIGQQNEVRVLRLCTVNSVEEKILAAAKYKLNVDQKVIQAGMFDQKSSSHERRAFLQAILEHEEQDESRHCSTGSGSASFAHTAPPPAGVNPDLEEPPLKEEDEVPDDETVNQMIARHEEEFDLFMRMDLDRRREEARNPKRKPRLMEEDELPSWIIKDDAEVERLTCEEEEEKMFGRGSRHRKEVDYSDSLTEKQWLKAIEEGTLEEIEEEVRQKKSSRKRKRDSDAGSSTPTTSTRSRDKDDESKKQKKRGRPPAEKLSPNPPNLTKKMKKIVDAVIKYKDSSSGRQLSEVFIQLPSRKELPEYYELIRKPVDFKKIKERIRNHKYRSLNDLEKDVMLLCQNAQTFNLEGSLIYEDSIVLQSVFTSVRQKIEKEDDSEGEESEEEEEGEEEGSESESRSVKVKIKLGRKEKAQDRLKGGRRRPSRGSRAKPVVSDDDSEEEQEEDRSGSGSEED

Row | SMILES | IC50 (BRG-1) [µM] | Emax (BRG-1) [%] | BRM Max % Inhibition (BRM) [%] | IC50 (BRM) [µM] | IC50 (BRG-1; 30 nM BRG-1, 400 μM ATP) [µM] | Emax (BRG-1; 30 nM BRG-1, 400 μM ATP) [%] | BRM Max % Inhibition (BRM; 30 nM BRM, 400 μM ATP) [%] | IC50 (BRM; 30 nM BRM, 400 μM ATP) [µM]
1 | CCC(C)(O)c1cccc(C(=O)NCC(=O)Nc2nc(-c3cccc(-c4ccncc4)c3)cs2)c1 (centres unmarked) [Compound 79, 3-(2-hydroxybutan-2-yl)-N-(2-oxo-2-((4-(3-(pyridin-4-yl)phenyl)thiazol-2-yl)amino)ethyl)benzamide] | 0.1 to 1 | > 50 | >70 | 0.1 to 1 | – | – | – | –
2 | Cc1cc(C)c(C(C)(C)CN)cc1C(=O)NCC(=O)Nc1nc(-c2cccc(-c3ccncc3)c2)cs1 [Compound 89] | > 5 | > 30 | >80 | 1 to 5 | – | – | – | –
3 | CC(O)(c1cccc(C(=O)NCC(=O)Nc2nc(-c3cccc(-c4ccncc4)c3)cs2)c1)C(F)(F)F (centres unmarked) [Compound 78, N-(2-oxo-2-((4-(3-(pyridin-4-yl)phenyl)thiazol-2-yl)amino)ethyl)-3-(1,1,1-trifluoro-2-hydroxypropan-2-yl)benzamide] | 1 to 5 | > 40 | >80 | 0.1 to 1 | – | – | – | –
4 | Cc1cc(-c2cccc(-c3csc(NC(=O)CNC(=O)c4ccc(C)c(C(C)(C)CN)c4)n3)n2)ncn1 [Compound 201, 3-(2-amino-1,1-dimethyl-ethyl)-4-methyl-N-[2-[[4-[6-(6-methylpyrimidin-4-yl)-2-pyridyl]thiazol-2-yl]amino]-2-oxo-ethyl]benzamide] | 0.1 to 1 | > 90 | >95 | < 0.1 | – | – | – | –
5 | C[C@@H]1CN(c2cccc(-c3csc(NC(=O)CNC(=O)c4cccc(C5(O)COC5)c4)n3)c2)C[C@H](C)O1 [Compound 184, N-(2-((4-(3-((2R,6S)-2,6-dimethylmorpholino)phenyl)thiazol-2-yl)amino)-2-oxoethyl)-3-(3-hydroxyoxetan-3-yl)benzamide] | 1 to 5 | > 80 | >90 | 0.1 to 1 | – | – | – | –
6 | Cc1cc(C(=O)NCC(=O)Nc2nc(-c3cccc(-c4ccncc4)c3)cs2)cc(S(=O)(=O)C(C)C)c1C [Compound 16, 3-(isopropylsulfonyl)-4,5-dimethyl-N-(2-oxo-2-((4-(3-(pyridin-4-yl)phenyl)thiazol-2-yl)amino)ethyl)benzamide] | > 5 | < 30 | >70 | 0.1 to 1 | – | – | – | –
7 | Cc1cc(-c2cccc(-c3csc(NC(=O)CNC(=O)c4ccc(Cl)c(C(C)(C)CO)c4)n3)n2)ncn1 [Compound 216, 4-chloro-3-(2-hydroxy-1,1-dimethyl-ethyl)-N-[2-[[4-[6-(6-methylpyrimidin-4-yl)-2-pyridyl]thiazol-2-yl]amino]-2-oxo-ethyl]benzamide] | 0.1 to 1 | > 95 | >95 | < 0.1 | – | – | – | –
8 | Cc1cc(-c2cccc(-c3csc(NC(=O)CNC(=O)c4ccc5c(c4)[C@](C)(C#N)CC5)n3)n2)ncn1 [Compound 267, (3R)-3-cyano-3-methyl-N-[2-[[4-[6-(6-methylpyrimidin-4-yl)-2-pyridyl]thiazol-2-yl]amino]-2-oxo-ethyl]indane-5-carboxamide] | < 0.1 | > 95 | >95 | < 0.1 | – | – | – | –
9 | CC(C)(N)c1cccc(C(=O)NCC(=O)Nc2nc(-c3cccc(-c4ccncc4)c3)cs2)c1 [Compound 86, 3-(2-aminopropan-2-yl)-N-(2-oxo-2-((4-(3-(pyridin-4-yl)phenyl)thiazol-2-yl)amino)ethyl)benzamide] | 1 to 5 | > 60 | >80 | > 5 | – | – | – | –

Results, then the compound that gave them:

Row | IC50 (BRG-1) [µM] | Emax (BRG-1) [%] | BRM Max % Inhibition (BRM) [%] | IC50 (BRM) [µM] | IC50 (BRG-1; 30 nM BRG-1, 400 μM ATP) [µM] | Emax (BRG-1; 30 nM BRG-1, 400 μM ATP) [%] | BRM Max % Inhibition (BRM; 30 nM BRM, 400 μM ATP) [%] | IC50 (BRM; 30 nM BRM, 400 μM ATP) [µM] | SMILES
10 | 0.1 to 1 | > 95 | >95 | < 0.1 | – | – | – | – | CCOC(=O)N1CCC[C@H](c2csc(NC(=O)CNC(=O)c3ccc4c(c3)C(C)(F)COC4)n2)C1 (stereo in doubt) [Compound 284, ethyl (S)-3-(2-(2-((R)-4-fluoro-4-methylisochromane-6-carboxamido)acetamido)thiazol-4-yl)piperidine-1-carboxylate]
11 | 1 to 5 | > 90 | >90 | 0.1 to 1 | – | – | – | – | COc1cccc(-c2csc(NC(=O)CNC(=O)c3cc(F)c4c(c3)C(C)(O)COC4)n2)c1 (stereo in doubt) [Compound 280, (R)-8-fluoro-4-hydroxy-N-(2-((4-(3-methoxyphenyl)thiazol-2-yl)amino)-2-oxoethyl)-4-methylisochromane-6-carboxamide]
12 | 1 to 5 | > 50 | >80 | 0.1 to 1 | – | – | – | – | CN1CCOc2ccc(-c3csc(NC(=O)CNC(=O)c4ccc5c(c4)[C@@](C)(CO)CC5)n3)cc21 [Compound 174, (S)-3-(hydroxymethyl)-3-methyl-N-(2-((4-(4-methyl-3,4-dihydro-2H-benzo[b][1,4]oxazin-6-yl)thiazol-2-yl)amino)-2-oxoethyl)-2,3-dihydro-1H-indene-5-carboxamide]
13 | 1 to 5 | > 70 | >90 | 0.1 to 1 | – | – | – | – | C[C@@H]1CN(c2cccc(-c3csc(NC(=O)CNC(=O)c4cccc(C5(F)COC5)c4)n3)c2)C[C@H](C)O1 [Compound 183, N-(2-((4-(3-((cis)-2,6-dimethylmorpholino)phenyl)thiazol-2-yl)amino)-2-oxoethyl)-3-(3-fluorooxetan-3-yl)benzamide]
14 | 0.1 to 1 | > 95 | >95 | < 0.1 | – | – | – | – | C[C@@]1(C#N)COCc2ccc(C(=O)NCC(=O)Nc3nc(-c4cccc([C@@H]5CC5(F)F)n4)cs3)cc21 [Compound 386, (R)-4-cyano-N-(2-((4-(6-((S)-2,2-difluorocyclopropyl)pyridin-2-yl)thiazol-2-yl)amino)-2-oxoethyl)-4-methylisochromane-6-carboxamide]
15 | 0.1 to 1 | > 95 | >95 | < 0.1 | – | – | – | – | C[C@@H]1CN(c2cccc(-c3csc(NC(=O)CNC(=O)c4ccc5c(c4)C(C)(CO)COC5)n3)c2)C[C@H](C)O1 (stereo in doubt) [Compound 372, (R)-N-(2-((4-(3-((cis)-2,6-dimethylmorpholino)phenyl)thiazol-2-yl)amino)-2-oxoethyl)-4-(hydroxymethyl)-4-methylisochromane-6-carboxamide]
16 | – | – | – | – | 0.1 to 1 | > 95 | >95 | < 0.1 | C[C@@H]1CN(c2cccc(-c3csc(NC(=O)CNC(=O)c4ccc5c(c4)C(C)(C#N)CO5)n3)c2)C[C@H](C)O1 (stereo in doubt) [Compound 417, (R)-3-cyano-N-(2-((4-(3-((cis)-2,6-dimethylmorpholino)phenyl)thiazol-2-yl)amino)-2-oxoethyl)-3-methyl-2,3-dihydrobenzofuran-5-carboxamide]
17 | > 5 | > 65 | >65 | 0.1 to 1 | – | – | – | – | C[C@@H]1CN(c2cccc(-c3csc(NC(=O)CNC(=O)c4ccc5c(c4)CCCO5)n3)n2)C[C@H](C)O1 [Compound 370, N-(2-((4-(6-((cis)-2,6-dimethylmorpholino)pyridin-2-yl)thiazol-2-yl)amino)-2-oxoethyl)chromane-6-carboxamide]
